Experimental findings from ChEMBL document CHEMBL1130994, “3-trifluoromethylcarbacephems: synthesis of broad spectrum antibacterial compounds” (1998) are described below.

The test system of assay [1] is Acinetobacter. Briefly: Compound was evaluated for inhibitory activity against AC12 Acinetobacter. In kind it is functional.
Assay [2] has as its system Citrobacter. Briefly: Compound was evaluated for inhibitory activity against CF17 Citrobacter. In kind it is functional.
The subject of assay [3] is Enterobacter cloacae. Put plainly: Compound was evaluated for inhibitory activity against 265a Enterobacter cloacae beta-lactamase. In kind it is functional.
Assay [4] concerns Enterobacter cloacae. Put plainly: Compound was evaluated for inhibitory activity against EB5 Enterobacter cloacae. Format: functional.
For assay [5], the system named is Escherichia coli. Put plainly: Compound was evaluated for inhibitory activity against EC14 Escherichia coli sensitive. In kind it is functional.
The subject of assay [6] is Escherichia coli. Put plainly: Compound was evaluated for inhibitory activity against TEM Escherichia coli beta-lactamase. Format: functional.
The subject of assay [7] is Klebsiella aerogenes. Briefly: Compound was evaluated for inhibitory activity against EB17 Enterobacter aerogenes. In kind it is functional.
Assay [8] concerns Enterococcus faecalis. Briefly: Compound was evaluated for inhibitory activity against 2041 Enterococcus faecalis Gp.D streptococcus penicillin susceptible. In kind it is functional.
Assay [9] deals with Klebsiella aerogenes. Put plainly: Compound was evaluated for inhibitory activity against C32 Enterobacter aerogenes. Format: functional.
Assay [10] relates to Haemophilus influenzae. Briefly: Compound was evaluated for inhibitory activity against 76 Haemophilus influenzae beta-lactamase. Format: functional.
Assay [11] deals with Haemophilus influenzae. Put plainly: Compound was evaluated for inhibitory activity against C.L Haemophilus influenzae ampicillin sensitive. Format: functional.
For assay [12], the system named is Klebsiella pneumoniae. Briefly: Compound was evaluated for inhibitory activity against KAE Klebsiella pneumoniae. Format: functional.
Assay [13] concerns Klebsiella pneumoniae. Briefly: Compound was evaluated for inhibitory activity against X26 Klebsiella pneumoniae. In kind it is functional.
Assay [14] relates to Morganella morganii. Put plainly: Compound was evaluated for inhibitory activity against PR15 Morganella morganii. Format: functional.
Assay [15] has as its system Providencia rettgeri. Briefly: Compound was evaluated for inhibitory activity against C24 Providencia rettgeri. In kind it is functional.
Assay [16] concerns Providencia stuartii. Put plainly: Compound was evaluated for inhibitory activity against PR33 Providencia stuartii. Format: functional.
For assay [17], the system named is Salmonella. Put plainly: Compound was evaluated for inhibitory activity against X514 Salmonella. In kind it is functional.
The test system of assay [18] is Serratia. Briefly: Compound was evaluated for inhibitory activity against SE3 Serratia. In kind it is functional.
In assay [19] the test system is Serratia. Briefly: Compound was evaluated for inhibitory activity against X99 Serratia. In kind it is functional.
Assay [20] deals with Streptococcus pyogenes. Put plainly: Compound was evaluated for inhibitory activity against C203 Streptococcus pyogenes Gp.A; No growth. In kind it is functional, organism-based.
Assay [21] has as its system Staphylococcus aureus. Put plainly: Compound was evaluated for inhibitory activity against S13E Staphylococcus aureus methicillin resistant penicillin resistant macrolide sensitive (PBP2a producer). Format: functional.
Assay [22] relates to Staphylococcus aureus. Briefly: Compound was evaluated for inhibitory activity against X1.1 Staphylococcus aureus penicillin sensitive. Format: functional.
For assay [23], the system named is Staphylococcus aureus. Put plainly: Compound was evaluated for inhibitory activity against X400S Staphylococcus aureus methicillin resistant and macrolide resistant. In kind it is functional.
Assay [24] deals with Streptococcus pneumoniae. Put plainly: Compound was evaluated for inhibitory activity against Park S Streptococcus pneumoniae; No growth. In kind it is functional, organism-based.
For assay [25], the system named is Streptococcus pneumoniae. Put plainly: 32 Compound was evaluated for inhibitory activity against Park S Streptococcus pneumoniae. In kind it is functional.
Assay [26] deals with Streptococcus pyogenes. Put plainly: Compound was evaluated for inhibitory activity against C203 Streptococcus pyogenes Gp.A. Format: functional.
Assay [27] relates to Acinetobacter. Briefly: Compound was evaluated for minimum inhibitory concentration against AC12 Acinetobacter. Format: functional.
Assay [28] concerns Citrobacter. Briefly: Compound was evaluated for minimum inhibitory concentration against CF17 Citrobacter. Format: functional.
The subject of assay [29] is Morganella morganii. Briefly: Compound was evaluated for minimum inhibitory concentration against PR15 Morganella morganii. In kind it is functional.
In assay [30] the test system is Providencia rettgeri. Briefly: Compound was evaluated for minimum inhibitory concentration against C24 Providencia rettgeri. Format: functional.
The subject of assay [31] is Salmonella. Briefly: Compound was evaluated for minimum inhibitory concentration against X514 Salmonella. Format: functional.
Assay [32] has as its system Serratia. Briefly: Compound was evaluated for minimum inhibitory concentration against SE3 Serratia. In kind it is functional.
The test system of assay [33] is Serratia. Put plainly: Compound was evaluated for minimum inhibitory concentration against X99 Serratia. Format: functional.
The test system of assay [34] is Streptococcus pneumoniae. Briefly: Compound was evaluated for inhibitory activity against Park S Streptococcus pneumoniae. Format: functional.
Assay [35] relates to Providencia stuartii. Put plainly: Compound was evaluated for minimum inhibitory concentration against PR33 Providencia stuartii. Format: functional.

The structures appear in SMILES notation. ≈ marks a conversion by molar mass, not a printed value.

With `Nc1ccc([C@@H](N)C(=O)N[C@@H]2C(=O)N3C(C(=O)O)=C(C(F)(F)F)CC[C@H]23)cc1`, the MIC in assay [1] amounted to 64 µM (≈ 25.5 µg/mL); in assay [2], 16 µM (≈ 6.37 µg/mL); in assay [3], 32 µM (≈ 12.7 µg/mL); in assay [4] it was 16 µM (≈ 6.37 µg/mL); in assay [5], 0.5 µM (≈ 0.199 µg/mL); in [6], 1 µM (≈ 0.398 µg/mL). Further, the MIC worked out at 4 µM (≈ 1.59 µg/mL) in assay [7]; 16 µM (≈ 6.37 µg/mL) in assay [8]; 8 µM (≈ 3.19 µg/mL) in assay [9]; 1 µM (≈ 0.398 µg/mL) in assay [10]; 1 µM (≈ 0.398 µg/mL) in assay [11]; 16 µM (≈ 6.37 µg/mL) in assay [12]. The MIC in [13] stood at 0.5 µM (≈ 0.199 µg/mL); in assay [14], 8 µM (≈ 3.19 µg/mL); in assay [15] it was 16 µM (≈ 6.37 µg/mL); in assay [16], 32 µM (≈ 12.7 µg/mL); in assay [17], 0.25 µM (≈ 0.0996 µg/mL); in [18], 32 µM (≈ 12.7 µg/mL). Further, the MIC in assay [19] is 16 µM (≈ 6.37 µg/mL); in assay [20] it was “No growth”; in assay [21], 64 µM (≈ 25.5 µg/mL); in [22], 2 µM (≈ 0.797 µg/mL); in assay [23] it was 64 µM (≈ 25.5 µg/mL); in assay [24] it was “No growth”.

As for `N[C@@H](C(=O)N[C@@H]1C(=O)N2C(C(=O)O)=C(C(F)(F)F)CC[C@H]12)c1cccc(F)c1`, the MIC in assay [1] was found to be 32 µM (≈ 12.8 µg/mL); in assay [2], 16 µM (≈ 6.42 µg/mL); in assay [3], 32 µM (≈ 12.8 µg/mL); in [4], 16 µM (≈ 6.42 µg/mL); in assay [5], 4 µM (≈ 1.61 µg/mL); in assay [6], 2 µM (≈ 0.803 µg/mL). The MIC in assay [7] was 8 µM (≈ 3.21 µg/mL); in assay [8], 32 µM (≈ 12.8 µg/mL); in [9] it was 16 µM (≈ 6.42 µg/mL); in [10] it was 2 µM (≈ 0.803 µg/mL); in assay [11], 2 µM (≈ 0.803 µg/mL); in [12], 16 µM (≈ 6.42 µg/mL). The MIC in [13] was determined as 2 µM (≈ 0.803 µg/mL); in [14], 32 µM (≈ 12.8 µg/mL); in [15], 16 µM (≈ 6.42 µg/mL); in assay [16], 16 µM (≈ 6.42 µg/mL); in assay [17], 2 µM (≈ 0.803 µg/mL); in [18], 64 µM (≈ 25.7 µg/mL). In addition, the MIC in assay [19] amounted to 32 µM (≈ 12.8 µg/mL); in [25], 0.25 µM (≈ 0.1 µg/mL); in assay [26], 0.06 µM (≈ 0.0241 µg/mL); in assay [21], 32 µM (≈ 12.8 µg/mL); in [22] it was 2 µM (≈ 0.803 µg/mL); in [23], 64 µM (≈ 25.7 µg/mL).

In the case of `Cc1ccc([C@@H](N)C(=O)N[C@@H]2C(=O)N3C(C(=O)O)=C(C(F)(F)F)CC[C@H]23)cc1`, the MIC in assay [27] turned out to be 16 µM (≈ 6.36 µg/mL); in [28], 16 µM (≈ 6.36 µg/mL); in assay [3], 32 µM (≈ 12.7 µg/mL); in [4], 16 µM (≈ 6.36 µg/mL); in assay [5] it was 2 µM (≈ 0.795 µg/mL); in [6] it was 4 µM (≈ 1.59 µg/mL). Besides, the MIC in assay [7] came out at 8 µM (≈ 3.18 µg/mL); in assay [8], 8 µM (≈ 3.18 µg/mL); in [9] it was 8 µM (≈ 3.18 µg/mL); in assay [10] it was 4 µM (≈ 1.59 µg/mL); in [11], 2 µM (≈ 0.795 µg/mL); in [12], 8 µM (≈ 3.18 µg/mL). The MIC in assay [13] was 0.5 µM (≈ 0.199 µg/mL); in assay [29], 8 µM (≈ 3.18 µg/mL); in assay [30], 16 µM (≈ 6.36 µg/mL); in [31], 4 µM (≈ 1.59 µg/mL); in assay [32] it was 64 µM (≈ 25.4 µg/mL); in assay [33] it was 16 µM (≈ 6.36 µg/mL). Besides, the MIC was found to be 0.06 µM (≈ 0.0238 µg/mL) in assay [26]; 4 µM (≈ 1.59 µg/mL) in assay [21]; 1 µM (≈ 0.397 µg/mL) in assay [22]; 4 µM (≈ 1.59 µg/mL) in assay [23]; 0.13 µM (≈ 0.0517 µg/mL) in assay [34]; 16 µM (≈ 6.36 µg/mL) in assay [35].
